In patent publication US9242933B2 (AbbVie Deutschland GmbH & Co. KG, priority 2007, dated 2016) one finds EC50 data, which are given here for 32 molecules.

For the assay, the target named is T1, human mGlu2 receptor (Homo sapiens, UniProt Q14416).
T1 construct: expressed in transfected cells; host or cells: HEK293
Description: FLIPR intracellular Ca2+ assay, potentiation of glutamate response in HEK293 clone expressing mGlu2 receptor, rGLAST and Galpha16. It is filed as cell-based. The following applies: 1 μM glutamate added ten minutes after test compound, HEK293 cells with human mGlu2, rGLAST, Galpha16, read-out: EC50 values of potentiation effect to glutamate. The source says:
The compounds of the present invention can be tested e.g. by evaluating intracellular Ca^2+ concentrations in cells permanently expressing human mGlu receptor, the rat glutamate transporter rGLAST and the Galpha16 subunit of the G-protein complex under standard conditions in a fluorometric imaging plate reader (FLIPR, Molecular Devices, Union City, Calif. 94587, USA) by measuring the response of the cells to a test compound in the absence of presence of glutamate. The FLIPR assay is a common functional assay to monitor native or recombinant Galphaq-coupled receptors, and native or recombinant receptors normally linked to other G-protein signalling cascades, which are coupled to calcium through co-expression of an alpha subunit of a promiscuous or chimeric G-protein. In the assay the increase of intracellular calcium is measured through a calcium-dependent fluorescent dye (e.g. Fluo-4 AM) in the FLIPR instrument.
For the purpose of the present study, a cell line permanently expressing a human mGlu receptor, such as the mGlu2 receptor, the rat glutamate transporter rGLAST and the GalphaG16 may be generated by transfection as described in the examples. For selection of a suitable cell clone and also the subsequent measurements, the selected clone the cells will be plated on suitable multiwell plates in a suitable medium (e.g. DMEM Glutamax (GIBCO #21885-025)/10% dialyzed FCS). Cells may be selected by gentamycin treatment as described in the examples. Cells will then be loaded with a suitable Ca^2+ sensitive fluorescence dye, e.g. with 2 μM Fluo-4 AM (Molecular Probes, F14201). Cells will then be washed with a suitable buffer (e.g. HEPES) and the thus treated plates will be measured in a fluorometric imaging plate reader (e.g. FLIPR, Molecular Devices, Union City, Calif. 94587, USA).
The compounds of the present invention were tested in the above-described FLIPR assay using the selected cell clone. Increased intracellular calcium levels were quantified following addition of test compound (agonism), as well as following addition of a submaximal concentration of glutamate (potentiation).
For the determination of the effect of the test compound by itself (agonism) or by increasing the response to a submaximal concentration (e.g. 1 μM) of glutamate (potentiation), the resulting signal is determined by subtraction of the background fluorescence from the maximal fluorescent peak height of the respective response. In the FLIPR instrument the compound is given to the cell and its fluorescence response quantified by the FLIPR instrument (agonism). The concentration at which the compound exerts half its maximal effect is named the ‘effective concentration 50’ or ‘EC50’. The maximal effect induced by the test substance is normalized to the maximal effect exerted by 100 μM glutamate (set at 100%).
After addition of the test compound to the plate, a submaximal concentration of glutamate (e.g. 1 μM glutamate) will be added. A potentiator enhances the response of the receptor to glutamate. The response to glutamate in the presence of test compound is quantified. The concentration at which the test compound is able to exert half its maximal potentiation effect to glutamate is named the ‘EC50’. The maximal response to the submaximal concentration of glutamate (e.g. 1 micromolar glutamate) in the presence of test compound is normalized to the maximal effect exerted by 100 micromolar glutamate (set at 100%). Least squares curve fitting with a four-parameter equation is then applied to the resulting dose-response curve to determine the resulting EC5O values (Graph Pad Prism).
For the purpose of the present study, a cell line permanently expressing the human mGlu2 receptor, the rat glutamate transporter rGLAST and the alpha subunit of G16 was generated by transfection. […]

T1 sequence (Q14416 19-872): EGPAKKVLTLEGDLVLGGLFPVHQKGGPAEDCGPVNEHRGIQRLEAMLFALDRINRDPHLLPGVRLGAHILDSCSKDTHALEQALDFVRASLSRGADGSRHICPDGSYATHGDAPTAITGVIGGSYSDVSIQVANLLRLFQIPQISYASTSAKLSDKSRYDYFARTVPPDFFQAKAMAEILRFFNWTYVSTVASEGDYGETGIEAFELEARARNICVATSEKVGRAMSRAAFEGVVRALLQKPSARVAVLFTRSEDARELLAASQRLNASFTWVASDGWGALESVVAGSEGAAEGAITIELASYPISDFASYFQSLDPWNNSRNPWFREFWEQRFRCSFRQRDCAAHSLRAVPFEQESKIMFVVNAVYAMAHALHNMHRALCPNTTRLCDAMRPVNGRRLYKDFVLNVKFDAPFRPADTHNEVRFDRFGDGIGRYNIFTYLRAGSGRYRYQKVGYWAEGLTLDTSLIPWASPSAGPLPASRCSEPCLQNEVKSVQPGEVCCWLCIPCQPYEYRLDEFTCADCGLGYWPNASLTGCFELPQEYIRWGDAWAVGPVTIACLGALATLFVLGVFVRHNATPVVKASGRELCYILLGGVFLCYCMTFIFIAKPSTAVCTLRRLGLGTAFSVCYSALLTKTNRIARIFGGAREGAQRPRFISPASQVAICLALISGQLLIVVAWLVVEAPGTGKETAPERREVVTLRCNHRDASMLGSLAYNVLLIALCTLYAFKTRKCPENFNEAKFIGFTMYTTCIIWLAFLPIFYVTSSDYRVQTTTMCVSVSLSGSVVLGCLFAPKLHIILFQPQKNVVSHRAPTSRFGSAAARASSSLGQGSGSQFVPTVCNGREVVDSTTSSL

The term EC50 denotes the midpoint of the concentration-response curve. With `CCCN1Cc2cc(NCc3c(C)noc3-c3ccccc3)ccc2C1=O` [Example 590, 5-[(3-Methyl-5-phenyl-isoxazol-4-ylmethyl)-amino]-2-propyl-2,3-dihydro-isoindol-1-one], the EC50 is less than 1000 nM.

With `O=C1c2ccc(OCc3c[nH]nc3-c3ccc(C(F)(F)F)cc3)cc2CN1CC(F)F` [Example 566, 2-(2,2-Difluoro-ethyl)-5-[3-(4-trifluoromethyl-phenyl)-1H-pyrazol-4-ylmethoxy]-2,3-dihydro-isoindol-1-one], the EC50 was less than 1000 nM. The same measure for `CCCCN1Cc2cc(OCc3c[nH]nc3-c3ccccc3)ccc2C1=O` [Example 551, 2-Butyl-5-(3-phenyl-1H-pyrazol-4-ylmethoxy)-2,3-dihydro-isoindol-1-one]: less than 1000 nM. The same measure for `CCCC(=O)c1ccc(NCc2cnn(C)c2-c2ccccc2)cc1` [Example 73]: less than 1000 nM; for `CCCC(=O)c1ccc(NCc2cnn(C)c2C)cc1` [Example 60, 1-{4-[(1,5-Dimethyl-1H-pyrazol-4-ylmethyl)amino]phenyl}butan-1-one]: 1000 to 10000 nM; for `CN(C)S(=O)(=O)c1ccc(NCc2c[nH]nc2-c2ccc(C(F)(F)F)cc2)cc1` [Example 169, N,N-Dimethyl-4-{[3-(4-trifluoromethyl-phenyl)-1H-pyrazol-4-ylmethyl]-amino}-benzenesulfonamide]: 1000 to 10000 nM. The result for `CCCC(=O)c1ccc(NCc2n[nH]c3ccccc23)cc1` [Example 215, 1-{4-[(1H-Indazol-3-ylmethyl)-amino]-phenyl}-butan-1-one] reads 1000 to 10000 nM; that for `CCCC(=O)c1ccc(NCc2sc(C)nc2-c2ccccc2)cc1` [Example 233, 1-{4-[(2-Methyl-4-phenyl-thiazol-5-ylmethyl)-amino]-phenyl}-butan-1-one], 1000 to 10000 nM; that for `CCCCN1Cc2cc(OCc3c[nH]nc3-c3ccc(C(F)(F)F)cc3)ccc2C1=O` [Example 544, 2-Butyl-5-[3-(4-trifluoromethyl-phenyl)-1H-pyrazol-4-ylmethoxy]-2,3-dihydro-isoindol-1-one], less than 1000 nM. Consider `CCCOc1ccc(NCc2c[nH]nc2C(C)(C)C)cc1` [Example 273, (3-tert-Butyl-1H-pyrazol-4-ylmethyl)-(4-propoxy-phenyl)-amine], for which the EC50 lay in the range of 1000 to 10000 nM.

With `CCCC(=O)c1ccc(N(Cc2cccnc2)S(=O)(=O)CC(F)(F)F)cc1` [Example 383, 2,2,2-Trifluoro-ethanesulfonic acid (4-butyryl-phenyl)-pyridin-3-ylmethyl-amide], the concentration giving a half-maximal response (EC50) lay within 1000 to 10000 nM. In the case of `CN(C)c1ccc(N(Cc2cccnc2)S(=O)(=O)CC(F)(F)F)cc1` [Example 385, 2,2,2-Trifluoro-ethanesulfonic acid (4-dimethylamino-phenyl)-pyridin-3-ylmethyl-amide], the EC50 lay within 1000 to 10000 nM. `O=C1c2ccc(OCc3c[nH]nc3-c3ccc(C(F)(F)F)cc3)cc2CN1c1ccccc1` [Example 589, 2-Phenyl-5-[3-(4-trifluoromethyl-phenyl)-1H-pyrazol-4-ylmethoxy]-2,3-dihydro-isoindol-1-one]: the EC50 lay within 1000 to 10000 nM. The result for `CCCC(=O)c1ccc(NCc2c[nH]nc2-c2ccccc2Cl)cc1` [Example 510, 1-(4-{[3-(2-Chloro-phenyl)-1H-pyrazol-4-ylmethyl]-amino}-phenyl)-butan-1-one] reads less than 1000 nM; that for `O=C1c2ccc(OCc3c[nH]nc3-c3ccc(C(F)(F)F)cc3)cc2CN1CCBr` [Example 564, 2-(2-Bromo-ethyl)-5-[3-(4-trifluoromethyl-phenyl)-1H-pyrazol-4-ylmethoxy]-2,3-dihydro-isoindol-1-one], less than 1000 nM; that for `CC(=O)c1ccc2c(c1)CCN2Cc1c[nH]nc1-c1ccc(C(F)(F)F)cc1` [Example 507, 1-{1-[3-(4-Trifluoromethyl-phenyl)-1H-pyrazol-4-ylmethyl]2,3-dihydro1H-indol-5-yl}-ethanone], 1000 to 10000 nM. The same measure for `CCCC(=O)c1ccc(NCc2c(C)noc2C)cc1` [Example 227, 1-{4-[(3,5-Dimethyl-isoxazol-4-ylmethyl)-amino]-phenyl}-butan-1-one]: 1000 to 10000 nM; for `CCCC(=O)c1ccc(NCc2nn(C)c3ccccc23)cc1` [Example 219, 1-{4-[(1-Methyl-1H-indazol-3-ylmethyl)-amino]-phenyl}-butan-1-one]: 1000 to 10000 nM. The same measure for `CCCC(=O)c1ccc(NCc2cn(-c3ccccc3)nc2-c2ccc(F)cc2)cc1` [Example 221, 1-(4-{[3-(4-Fluorophenyl)-1-phenyl-1H-pyrazol-4-ylmethyl]-amino}-phenyl)-butan-1-one]: 1000 to 10000 nM.

On to `CCCC(=O)c1ccc(SCc2c[nH]nc2-c2ccc(C(F)(F)F)cc2)cc1` [Example 492, 1-{4-[3-(4-Trifluoromethyl-phenyl)-1H-pyrazol-4-ylmethylsulfanyl]-phenyl}-butan-1-one], for which the concentration giving a half-maximal response (EC50) was in the range of 1000 to 10000 nM. Turning to `CCCC(=O)c1ccc(NCc2nc(-c3cccs3)oc2C)cc1` [Example 245, 1-{4-[(5-Methyl-2-thiophen-2-yl-oxazol-4-ylmethyl)-amino]-phenyl}-butan-1-one], the EC50 was 1000 to 10000 nM. `CCCCN1Cc2cc(OCc3c[nH]nc3-c3cccc(Cl)c3)ccc2C1=O` [Example 549, 2-Butyl-5-[3-(3-chloro-phenyl)-1H-pyrazol-4-ylmethoxy]-2,3-dihydro-isoindol-1-one]: the EC50 was less than 1000 nM. The result for `O=C(c1ccc(OCc2c[nH]nc2-c2cccc(C(F)(F)F)c2)cc1)C1CCCC1` [Example 442, Cyclopentyl-{4-[3-(3-trifluoromethyl-phenyl)-1H-pyrazol-4-ylmethoxy]-phenyl}-methanone] reads less than 1000 nM; that for `CCCC(=O)c1ccc(NCc2c[nH]nc2-c2ccc(Cl)cc2)cc1` [Example 217, 1-(4-{[3-(4-Chloro-phenyl)-1H-pyrazol-4-ylmethyl]-amino}-phenyl)-butan-1-one], less than 1000 nM; that for `CCCC(=O)c1ccc(NCc2cnn3ccccc23)cc1` [Example 529, 1-{4-[(Pyrazolo[1,5-a]pyridin-3-ylmethyl)-amino]-phenyl}-butan-1-one], 1000 to 10000 nM. The same measure for `CCCC(=O)c1ccc(NCc2cn(C)nc2-c2ccc(C(F)(F)F)cc2)cc1` [Example 374, 1-(4-{[1-Methyl-3-(4-trifluoromethyl-phenyl)-1H-pyrazol-4-ylmethyl]-amino}-phenyl)-butan-1-one]: less than 1000 nM. The result for `CCCC(=O)c1ccc(NCc2n[nH]c3ccc(OC)cc23)cc1` [Example 223, 1-{4-[(5-Methoxy-1H-indazol-3-ylmethyl)-amino]-phenyl}-butan-1-one] reads 1000 to 10000 nM.

On to `CCCC(=O)c1cccc(NCc2n[nH]cc2-c2ccc(CC)cc2)c1` [Example 515, 1-(3-{[4-(4-Ethyl-phenyl)-1H-pyrazol-3-ylmethyl]-amino}-phenyl)-butan-1-one], for which the half-maximal effective concentration (EC50) was 1000 to 10000 nM. Consider `Cc1ccc(NCc2c[nH]nc2-c2ccc(C(F)(F)F)cc2)nc1C` [Example 363, (5,6-Dimethyl-pyridin-2-yl)-[3-(4-trifluoromethyl-phenyl)-1H-pyrazol-4-ylmethyl]-amine], for which the EC50 fell in the range of 1000 to 10000 nM.

For `CCCC(=O)c1ccc(NCc2c[nH]nc2-c2ccccc2)cc1` [Example 210, 1-{4-[(3-Phenyl-1H-pyrazol-4-ylmethyl)-amino]-phenyl}-butan-1-one], the EC50 was less than 1000 nM. The result for `CCCN1Cc2cc(OCc3c[nH]nc3-c3cccc(C(F)(F)F)c3)ccc2C1=O` [Example 532, 2-Propyl-5-[3-(3-trifluoromethyl-phenyl)-1H-pyrazol-4-ylmethoxy]-2,3-dihydro-isoindol-1-one] reads less than 1000 nM; that for `CCCC(=O)c1ccc(NCc2ccc(Cl)nc2Cl)cc1` [Example 307, 1-{4-[(2,6-Dichloro-pyridin-3-ylmethyl)-amino]-phenyl}-butan-1-one], 1000 to 10000 nM.
